pKi: −log10 of the molar value. Counter-ions that a name gives are not always drawn.
Each compound was assayed against T1, Sigma 2 (Rattus norvegicus, UniProt Q5U3Y7) (assay: not given). Conditions: read-out: Sigma 2 Ki; [^3H]-DTG 1 nM, 500 nM pentazocine, crude P2 membrane fraction from rat livers, 50 mM Tris-HCl pH 7.4, 25°C, 2 hours.
T1 sequence (Q5U3Y7 1-176): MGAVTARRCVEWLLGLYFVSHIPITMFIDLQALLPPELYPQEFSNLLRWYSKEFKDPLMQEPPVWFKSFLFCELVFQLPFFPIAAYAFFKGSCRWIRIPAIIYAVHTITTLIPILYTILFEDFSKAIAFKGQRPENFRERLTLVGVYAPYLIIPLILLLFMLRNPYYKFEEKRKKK
With `N=c1sc2cc(Cl)ccc2n1CC1CCN(C[C@H](O)c2ccc(F)cc2)CC1` (racemic) [Example 3, (R,S)-1-(4-Fluorophenyl)-2-[4-(6-chloro-2-iminobenzothiazolin-3-ylmethyl)-piperidin-1-yl]ethanol dihydrochloride] the pKi was 7.46.

What follows are compounds tested against T1, Sigma 2 (assay: biochemical). Conditions: not given.
In the case of `O=c1sc2ccc(Cl)cc2n1CC1CCN(CC(O)c2ccc(F)cc2)CC1` (racemic) [Example 40, (R,S)-1-(4-Fluorophenyl)-2-[4-(5-chloro-2-oxobenzothiazolin-3-ylmethyl)piperidin-1-yl]ethanol hydrochloride], the pKi was 8.33.
Work on `CN=c1sc2cc(Cl)ccc2n1CC1CCN(C[C@H](O)c2ccc(F)cc2)CC1` [Example 27, (R)-1-(4-Fluorophenyl)-2-[4-(6-chloro-2-methyliminobenzothiazolin-3-yl-methyl)piperidin-1-yl]ethanol dihydrochloride] yielded a pKi of 7.77.
Compound `N=c1sc2cc(C(F)(F)F)ccc2n1CC1CCN(CC(=O)c2ccc(F)cc2)CC1` [Example 23, 3-[[1-[2-(4-Fluorophenyl)-2-oxoethyl]-4-piperidinyl]methyl]-2-imino-6-trifluoromethylbenzothiazoline dihydrochloride] has a pKi of 8.14.
In the case of `O=c1sc2cc(Br)ccc2n1CC1CCN(CC(O)c2ccc(F)cc2)CC1` (racemic) [Example 32, (R,S)-1-(4-Fluorophenyl)-2-[4-(6-bromo-2-oxobenzothiazolin-3-ylmethyl)-piperidin-1-yl]ethanol hydrochloride], the pKi was 8.40.
For `CN=c1sc2cc(Cl)ccc2n1CC1CCN(C[C@@H](O)c2ccc(F)cc2)CC1` [Example 28, (S)-1-(4-Fluorophenyl)-2-[4-(6-chloro-2-methyliminobenzothiazolin-3-yl-methyl)piperidine-1-yl]ethanol dihydrochloride], the pKi was 7.72.
`CN=c1sc2cc(Cl)ccc2n1CC1CCN(CC(=O)c2ccc(F)cc2)CC1` [Example 4, 3-[[1-[2-(-Fluorophenyl)-2-oxoethyl]-4-piperidinyl]methyl]-6-chloro-2-methyliminobenzothiazoline dihydrochloride] was tested, and the pKi was 8.40.
With `CN=c1sc2cc(Cl)ccc2n1CC1CCN(CC(O)c2ccc(F)cc2)CC1` (racemic) [Example 5, (R,S)-1-(4-Fluorophenyl)-2-[4-(6-chloro-2-methyliminobenzothiazolin-3-yl-methyl)piperidin-1-yl]ethanol dihydrochloride] the pKi was 8.14.
In the case of `CN=c1sc2cc(Cl)ccc2n1CCCCN(C)CC(O)c1ccc(F)cc1` (racemic) [Example 30, (R,S)-1-(4-Fluorophenyl)-2-[[N-[4-(6-chloro-2-methyliminobenzothiazolin-3-yl)butyl]-N-methyl]amino]ethanol dihydrochloride], the pKi was 7.60.
Work on `O=C(CN1CCC(Cn2c(=O)sc3cc(Cl)ccc32)CC1)c1ccc(F)cc1` [Example 33, 3-[[1-[2-(4-Fluorophenyl)-2-oxoethyl]-4-piperidinyl]methyl]-6-chloro-2-oxobenzothiazoline hydrochloride] yielded a pKi of 8.35.
With `CN=c1sc2cc(Cl)ccc2n1CC1CCN(CC(O)c2ccc(F)cc2F)CC1` (racemic) [Example 22, (R,S)-1-(2,4-Difluorophenyl)-2-[4-(6-chloro-2-methyliminobenzothiazolin-3-ylmethyl)piperidin-1-yl]ethanol dihydrochloride] the pKi was 8.03.
Work on `O=C(CN1CCC(Cn2c(=O)sc3cc([N+](=O)[O-])ccc32)CC1)c1ccc(F)cc1` [Example 35, 3-[[1-[2-(4-Fluorophenyl)-2-oxoethyl]-4-piperidinyl]methyl]-6-nitro-2-oxobenzothiazoline hydrochloride] yielded a pKi of 7.89.
In the case of `O=C(CN1CCC(Cn2c(=O)sc3ccc(Cl)cc32)CC1)c1ccc(F)cc1` [Example 39, 3-[[1-[2-(4-Fluorophenyl)-2-oxoethyl]-4-piperidinyl]methyl]-5-chloro-2-oxobenzothiazoline hydrochloride], the pKi was 8.51.
`N=c1sc2ccccc2n1CC1CCN(CC(=O)c2ccc(F)cc2)CC1` [Example 15, 3-[[1-[2-(4-Fluorophenyl)-2-oxoethyl]-4-piperidinyl]methyl]-2-iminobenzothiazoline dihydrochloride] was tested, and the pKi was 7.55.
Compound `CC(=O)N=c1sc2cc(Cl)ccc2n1CC1CCN(CC(=O)c2ccc(F)cc2)CC1` [Example 9, 3-[[1-[2-(4-Fluorophenyl)-2-oxoethyl]-4-piperidinyl]methyl]-6-chloro-2-acetyliminobenzothiazoline hydrochloride] has a pKi of 8.03.
`CN=c1sc2cc(Cl)ccc2n1CC1CCN(CC(=O)c2ccc(S(N)(=O)=O)cc2)CC1` [Example 21, 3-[[1-[2-(4-Aminosulfonylphenyl)-2-oxoethyl]-4-piperidinyl]methyl]-6-chloro-2-methyliminobenzothiazoline dihydrochloride] gave a pKi of 7.77.
`O=C(CN1CCC(Cn2c(=O)sc3cc(Br)ccc32)CC1)c1ccc(F)cc1` [Example 31, 3-[[1-[2-(4-Fluorophenyl)-2-oxoethyl]-4-piperidinyl]methyl]-6-bromo-2-oxobenzothiazoline hydrochloride] was tested, and the pKi was 8.20.
`N=c1sc2cc(Cl)ccc2n1CC1CCN(CC(O)c2cccc(F)c2)CC1` (racemic) [Example 11, (R,S)-1-(3-Fluorophenyl)-2-[4-(6-chloro-2-iminobenzothiazolin-3-yl-methyl)piperidin-1-yl]ethanol dihydrochloride] gave a pKi of 7.44.
`O=c1sc2cc([N+](=O)[O-])ccc2n1CC1CCN(CC(O)c2ccc(F)cc2)CC1` (stereo not drawn) [Example 36, 1-(4-Fluorophenyl)-2-[4-(6-nitro-2-oxobenzothiazolin-3-ylmethyl)piperidin-1-yl]ethanol hydrochloride] gave a pKi of 7.51.
In the case of `N=c1sc2cc(Cl)ccc2n1CC1CCN(CC(O)c2ccc(F)c(F)c2)CC1` (racemic) [Example 6, (R,S)-1-(3,4-Difluorophenyl)-2-[4-(6-chloro-2-iminobenzothiazolin-3-yl-methyl)piperidin-1-yl]ethanol dihydrochloride], the pKi was 7.60.
`N=c1sc2cc(F)ccc2n1CC1CCN(CC(=O)c2ccc(F)cc2)CC1` [Example 19, 3-[[1-[2-(4-Fluorophenyl)-2-oxoethyl]-4-piperidinyl]methyl]-6-fluoro-2-iminobenzothiazoline dihydrochloride] was tested, and the pKi was 7.68.
Work on `N=c1sc2cc(Cl)ccc2n1CC1CCN(CC(O)C23CC4CC(CC(C4)C2)C3)CC1` (racemic) [Example 1, (R,S)-1-(1-Adamantyl)-2-[4-(6-chloro-2-iminobenzothiazolin-3-ylmethyl)piperidin-1-yl] ethanol dihydrochloride] yielded a pKi of 8.06.
For `N=c1sc2cc(Cl)ccc2n1CC1CCN(CC(=O)c2ccc(F)cc2)CC1` [Example 2, 3-[[1-[2-(4-Fluorophenyl)-2-oxoethyl]-4-piperidinyl]methyl]-6-chloro-2-iminobenzothiazoline dihydrochloride], the pKi was 8.15.
Compound `Cc1ccc2c(c1)sc(=N)n2CC1CCN(CC(=O)c2ccc(F)cc2)CC1` [Example 18, 3-[[1-[2-(4-Fluorophenyl)-2-oxoethyl]-4-piperidinyl]methyl]-6-methyl-2-iminobenzothiazoline dihydrochloride] has a pKi of 7.64.

Reference: patent EP1043319A1, “NOVEL ALKYLAMINO DERIVATIVES” (MITSUBISHI CHEMICAL CORPORATION, priority 1997, dated 1999)
